Where a name gives a salt, the structure may show the parent alone.
Legend:
[1] = IV and PO pharmacokinetic studies of prodrug salts (Iab, Ibb, Icb) in the dog, with historical parent data; assay type: in vivo, beagle dogs; settings: for AUC: read-out: AUCtot; for concentration at 24 hr: read-out: C-24 hr; for Cmax: read-out: Cmax
Description: The IV and PO studies of Iab were conducted in a crossover fashion in three male beagle dogs (11±1.1 kg, Marshall Farms USA Inc., North Rose, N.Y.). There was a two-week washout period between the IV and PO studies.
(§1) In the IV study, Iab was infused via the cephalic vein at 1.2 mg/kg (free acid, or 0.95 mg/kg of IVa equivalent) over 5 min at a constant rate of 0.1 mL/kg/min. The concentration of the dosing solution was 2.4 mg/mL, and the dosing volume was 0.5 mL/kg. Serial blood samples were collected from the femoral artery before dosing and at 5, 10, 15, 30, 45 min, 1, 2, 4, 6, 8 and 24 hr after dosing.
(§2) In the PO study, the dogs were fasted overnight before dosing. Iab was administered by oral gavage at 6.6 mg/kg (free acid, or 5.2 mg/kg of IVa equivalent). The concentration of the dosing solution was 13.2 mg/mL, and the dosing volume was 0.5 mL/kg. Serial blood samples were collected before dosing and at 15, 30, 45 min, 1, 2, 4, 6, 8 and 24 hr after dosing.
The IV and PO studies of Ibb were conducted in male beagle dogs (10±0.78 kg, Marshall Farms USA Inc., North Rose, N.Y.). Three dogs were used in each study. Of the three dogs, two same dogs were used for both IV and PO studies. There was a two-week washout period between the IV and PO studies.
The concentration of the dosing solution was 2.6 mg/mL, and the dosing volume was 0.5 mL/kg. Serial blood samples were collected from the femoral artery before dosing and at 5, 10, 15, 30, 45 min, 1, 2, 4, 6, 8 and 24 hr after dosing.
In the PO study, the dogs were fasted overnight before dosing. […] The concentration of the dosing solution was 7.0 mg/mL, and the dosing volume was 1 mL/kg. Serial blood samples were collected before dosing and at 15, 30, 45 min, 1, 2, 4, 6, 8 and 24 hr after dosing.
The IV and PO studies of Icb were conducted in a crossover fashion in three male beagle dogs (12±2.8 kg, Marshall Farms USA Inc., North Rose, N.Y.). There was a two-week washout period between the IV and PO studies.
as §1, with “Icb” for “Iab”, “1.3” for “1.2”, “1.0” for “0.95”, “IVe” for “IVa”, “2.6” for “2.4”
In the PO study, the dogs were fasted overnight before dosing. […] The concentration of the dosing solution was 12 mg/mL, and the dosing volume was 0.5 mL/kg. Serial blood samples were collected before dosing and at 15, 30, 45 min, 1, 2, 4, 6, 8 and 24 hr after dosing.

[2] = IV and PO pharmacokinetic studies of prodrug salts (Iab, Ibb, Icb) in the monkey, with historical parent data; assay type: in vivo, cynomolgus monkeys; settings: for AUC: read-out: AUCtot; for concentration at 24 hr: read-out: C-24 hr; for Cmax: read-out: Cmax
Description: The IV and PO studies of Iab were conducted in a crossover fashion in three male cynomolgus monkeys (11±1.2 kg, Charles River Biomedical Research Foundation, Houston, Tex.). There was a two-week washout period between the IV and PO studies.
as §1, with “femoral” for “cephalic”, “1.3” for “1.2”, “1.1” for “0.95”, “2.6” for “2.4”
as §2, with “monkeys” for “dogs”, “7.1” for “6.6”, “5.6” for “5.2”, “14.2” for “13.2”
The IV and PO studies of Ibb were conducted in a crossover fashion in three male cynomolgus monkeys (9.9±2.4 kg, Charles River Biomedical Research Foundation, Houston, Tex.). There was a two-week washout period between the IV and PO studies.
The concentration of the dosing solution was 2.7 mg/mL, and the dosing volume was 0.5 mL/kg. Serial blood samples were collected from the femoral artery before dosing and at 5, 10, 15, 30, 45 min, 1, 2, 4, 6, 8 and 24 hr after dosing.
In the PO study, the monkeys were fasted overnight before dosing. […] The concentration of the dosing solution was 5.8 mg/mL, and the dosing volume was 1 mL/kg. Serial blood samples were collected before dosing and at 15, 30, 45 min, 1, 2, 4, 6, 8 and 24 hr after dosing.
The IV and PO studies of Icb were conducted in a crossover fashion in three male cynomolgus monkeys (10±1.6 kg, Charles River Biomedical Research Foundation, Houston, Tex.). There was a two-week washout period between the IV and PO studies.
The concentration of the dosing solution was 2.8 mg/mL, and the dosing volume was 0.5 mL/kg. Serial blood samples were collected from the femoral artery before dosing and at 5, 10, 15, 30, 45 min, 1, 2, 4, 6, 8 and 24 hr after dosing.
In the PO study, the monkeys were fasted overnight before dosing. […] The concentration of the dosing solution was 9.8 mg/mL, and the dosing volume was 0.5 mL/kg. Serial blood samples were collected before dosing and at 15, 30, 45 min, 1, 2, 4, 6, 8 and 24 hr after dosing.

[3] = male, beagle, plasma, po, 6.05 mg/kg
[4] = cynomolgus monkey, plasma, po, 5 mg/kg
[5] = male, cynomolgus monkey, plasma, po, 4.9 mg/kg
[6] = male, beagle, plasma, po, 7 mg/kg

COc1cnc(-n2cnc(C)n2)c2[nH]cc(C(=O)C(=O)N3CCN(C(=O)c4ccccc4)CC3)c12 [IVc]
bioavailability ([1]; beagle, plasma, historical parent, PO 5 mg/kg, read-out: Bioavailability (%)): 89% | Tmax ([1]; beagle, plasma, historical parent, PO 5 mg/kg, read-out: Tmax (hr), PO): 1.3 h | AUC ([1]; male, beagle, plasma, iv, 1.28 mg/kg): 9.8 ± 3.6 µM·h | bioavailability ([1]; male, beagle, plasma, oral prodrug, read-out: Bioavailability (%) of parent from prodrug): 104% | bioavailability ([1]; male, beagle, plasma, oral, 6.05 mg/kg, read-out: Bioavailability): 104% | concentration at 24 hr ([1]; male, beagle, plasma, oral, 6.05 mg/kg): 220 ± 160 nM | Tmax ([1]; male, beagle, plasma, parent after oral prodrug (~5 mg/kg parent equivalent), read-out: Tmax (hr), PO): 0.58 h | AUC [1, 3]: 72 ± 27 µM·h | Cmax [1, 3]: 16000 ± 3900 nM | Tmax ([1]; male, beagle, plasma, po, 6.05 mg/kg, read-out: Tmax): 0.58 ± 0.38 h | AUC ([1]; plasma, iv, 1 mg/kg): 14 ± 2.5 µM·h | MRT ([1]; plasma, iv, 1 mg/kg, read-out: MRT): 378 ± 114 min | Vd ([1]; plasma, iv, 1 mg/kg, read-out: Vdss): 0.93 ± 0.14 L/kg | concentration at 24 hr ([1]; plasma, oral, 5 mg/kg): 150 ± 27 nM | AUC ([1]; plasma, po, 5 mg/kg): 63 ± 2.4 µM·h | bioavailability ([1]; plasma, po, 5 mg/kg, read-out: Bioavailability): 89 ± 12% | Cmax ([1]; plasma, po, 5 mg/kg): 9600 ± 870 nM | Tmax ([1]; plasma, po, 5 mg/kg, read-out: Tmax): 1.3 ± 0.58 h | AUC ([2]; cynomolgus monkey, plasma, iv, 1 mg/kg): 5 ± 1 µM·h | MRT ([2]; cynomolgus monkey, plasma, iv, 1 mg/kg, read-out: MRT): 52.2 ± 5.1 min | Vd ([2]; cynomolgus monkey, plasma, iv, 1 mg/kg, read-out: Vdss): 0.4 ± 0.097 L/kg | concentration at 24 hr ([2]; cynomolgus monkey, plasma, oral, 5 mg/kg): 17 ± 11 nM | AUC [2, 4]: 14 ± 4 µM·h | Cmax [2, 4]: 4200 ± 2600 nM | bioavailability ([2]; cynomolgus monkey, plasma, monkey, historical parent, PO 5 mg/kg, read-out: Bioavailability (%)): 64% | Tmax ([2]; cynomolgus monkey, plasma, monkey, historical parent, PO 5 mg/kg, read-out: Tmax (hr), PO): 2.3 h | bioavailability ([2]; male, cynomolgus monkey, plasma, oral, 4.9 mg/kg, read-out: Bioavailability): 122% | concentration at 24 hr ([2]; male, cynomolgus monkey, plasma, oral, 4.9 mg/kg): 7 ± 2 nM | AUC [2, 5]: 24 ± 4.6 µM·h | Cmax [2, 5]: 9500 ± 1200 nM | Tmax ([2]; male, cynomolgus monkey, plasma, po, 4.9 mg/kg, read-out: Tmax): 0.92 ± 0.14 h | bioavailability ([2]; male, cynomolgus monkey, plasma, monkey, oral prodrug, read-out: Bioavailability (%) of parent from prodrug): 122% | Tmax ([2]; male, cynomolgus monkey, plasma, monkey, parent after oral prodrug (~4-6 mg/kg parent equivalent), read-out: Tmax (hr), PO): 0.92 h | Tmax ([2]; monkey, PO IVc 5 mg/kg, historical IVc): 2.3 ± 1.5 h

O=C(C(=O)N1CCN(C(=O)c2ccccc2)CC1)c1cn(COP(=O)(O)O)c2c(-n3ccnn3)ncc(F)c12 [Ibb, [3-[(4-benzoylpiperazin-1-yl)(oxo)acetyl]-4-fluoro-7-(1H-1,2,3-triazol-1-yl)-1H-pyrrolo[2,3-c]pyridin-1-yl]methyl dihydrogen phosphate, L-lysine salt (1:1)]
T1/2 ([1]; IV Ibb […] free acid (1.0 of IVb eqv.), mean ± SD, n = 3): 49.8 ± 34.8 min | prodrug detected in plasma after oral administration ([1]; LLQ = 5 nM): 0.034 µM | half-life ([1]; male, beagle, plasma, after IV prodrug, analyte = label, read-out: t1/2 (hr), IV (converted)): 0.83 h | AUC [1, 6]: 0.059 µM·h | Cmax [1, 6]: 34 ± 18 nM | Tmax ([1]; male, beagle, plasma, po, 7 mg/kg, read-out: Tmax): 0.33 ± 0.14 h | clearance ([1]; male, beagle, plasma, prodrug after IV administration, read-out: CLtot (mL/min/kg), IV): 27 mL/min/kg | Vd ([1]; male, beagle, plasma, prodrug after IV administration, read-out: Vdss (L/kg), IV): 0.35 L/kg | half-life ([2]; male, cynomolgus monkey, plasma, monkey, after IV prodrug, analyte = label, read-out: t1/2 (hr), IV (converted)): 0.1 h | clearance ([2]; male, cynomolgus monkey, plasma, monkey, prodrug after IV administration, read-out: CLtot (mL/min/kg), IV): 28 mL/min/kg | Vd ([2]; male, cynomolgus monkey, plasma, monkey, prodrug after IV administration, read-out: Vdss (L/kg), IV): 0.15 L/kg | prodrug detected in plasma after oral administration ([2]; monkey, LLQ = 5 nM): not detected

— patent US20150315218A1, “SALTS OF PRODRUGS OF PIPERAZINE AND SUBSTITUTED PIPERIDINE ANTIVIRAL AGENTS” (Bristol-Myers Squibb Company, priority 2004, published 2015)
